# Assay results: US4916068A, “Bioconversion production of ascorbic acid with L-galactono-1,4-oxidase” (Kraft, Inc., priority 1984, dated 1990)
# Experiments:
# preferred yeast strains = assay: utilization of galactose derivatives for L-ascorbic acid formation; assay type: cell-based; settings: compared with L-galactono-gamma-lactone
# Excerpt: The D-galactose 18 is converted by catalytic oxidation to provide D-galacturonic acid 22. Processes to carry out this oxidative step for D-sugar acids are well known in the art and have been described in U.S. Pat. No. 2,265,121 by T. Reichstein. A variety of catalytic agents, e.g., platinum or palladium catalysts may be employed to convert blocked D-galactose (acetone) to the D-galacturonic acid product. The unblocked D-galacturonic acid may then be reduced by an appropriate reduction step such as reduction with gaseous hydrogen in the presence of a suitable hydrogenation catalyst such as Raney nickel, or palladium, to produce L-galactonic acid 24. Processes to carry out this chemical reduction are well known in the art such as described by H. Isbell, J. Res. Nat. Bur. Stds., 33, 45-60 (1944). Removal of water by distillation and condensation of the desalted L-sugar acid induces the formation of L-galactono-gamma-lactone 26 which is utilized in the microbiological conversion process of the present invention to form L-ascorbic acid. […] Keto-derivatives such as 5-Keto-L-Galactonic acid, are not utilized by the preferred yeast strains particularly described herein. The L-galactono-gamma-lactone 26, ethanol 16, and suitable organic and inorganic nutrients are combined to provide a fermentation medium 28 for a selected L-ascorbic acid overproducer.
# Candida norvegensis = assay: Assimilation tests (identification of the yeast); assay type: cell-based; settings: C. norvegensis MF-56, MF-78 and parent CBS 2145
# Excerpt: The morphological, cultural and physiological characteristics of the mutant strain C. norvegensis Kraft, Inc. MF-56 ATCC 20686, the mutant strain C. norvegensis Kraft, Inc. MF-78 ATCC 20732, and the parent strain C. norvegensis CBS 2145 are consistent with the yeast description provided in The Yeasts, a taxononomic study (J. Lodder (Ed.) 1970, North Holland Publishing Co., Amsterdam) and A New Key to the Yeasts (J. A. Barnett & R. J. Parkhurst (Ed) 1974, North Holland Publishing Co., Amsterdam).
# [1] = system: Candida norvegensis CBS 1911; assay: aerobic bioconversion run with ethanol carbon source; assay type: cell-based; settings: 48 hours; for Other redox Compounds / Total Ascorbate / L-Ascorbate: 0.5% substrate; for L-Ascorbate: HPLC with electrochemical detection; for Optical Density: SMl + 1.5% ethanol + 0.5% substrate, 30° C.
# Experimental: (§1) Two yeast strains, Candida norvegensis CBS 1911 and Candida utilus NRRL Y-900 are utilized with an ethanol carbon source in separate bioconversion runs with each of two different substrates, L-galactono-1,4-lactone or D-galacturonic acid-methyl ester. The bioconversion runs are carried out under aerobic conditions in a 500 milliliter low actinic flask containing 50 ml of the biconversion medium. The bioconversions were carried out at a temperature of 30° C. for 48 hours with agitation provided by a skaker operating at 200 rpm. The medium for the C. norvegensis runs was the SMl medium previously described plus 1.5% ethanol plus 0.5% substrate. The medium for the C. utilus runs were SMl plus 1.5% ethanol plus 0.2% substrate.
# [2] = system: Candida utilus NRRL Y-900; assay: as above; assay type: cell-based; settings: 48 hours; for Other redox Compounds / Total Ascorbate / L-Ascorbate: 0.2% substrate; for L-Ascorbate: HPLC with electrochemical detection; for Optical Density: SMl + 1.5% ethanol + 0.2% substrate, 30° C.
# Experimental: as §1
# [3] = system: L-Galactono-1,4-Lactone Oxidase; assay: L-galactono-1,4-lactone oxidase activity, comparison of yeast strains; assay type: biochemical; settings: C. norvegensis (CBS 1911)
# Experimental: An assay mixture is provided which contains 2mM L-galactono-1,4-lactone and 50 mM Na-Citrate pH 6.8 in a total volume of 3 ml. The mixture is incubated at 37° C. in a shaker bath for up to 30 minutes. The reaction is stopped by adding 0.3 ml of 50% TCA. The precipitated protein is removed by centrifugation and the supernatant is assayed for L-ascorbate by high performance liquid chromatography analysis with electrochemical detection and by 2,6,dichloroindophenol titration.
# A series of 5 detergents: (1) nonylphenol POE-9 (NP-9), (2) polydet (P-40), (3) octylglucoside, (4) (3-[3-cholamindopropyl)-dimethylammonio]1-propane sulfonate (CHAPS), and (5) (3-[3-cholamindopropyl)-dimethyl ammonio]-2-hydroxy-1-propane sulfonate).2H2 O (CHAPSO) were tested. […] Biochem. & Biophys., 191, 47a (1978)].
# [4] = substrate: O=C1O[C@H]([C@@H](O)CO)[C@@H](O)[C@@H]1O; assay: mitochondrial assay for L-galactono-1,4-lactone oxidase activity; assay type: biochemical, Saccharomyces Cerevisiae; settings: other: intact mitochondrial system, substrate 0.1 mM to 50 mM; 37.0 °C
# Excerpt: Two pounds of Red Star baker's yeast (Saccharomyces Cerevisiae), which is not overproductive in L-Ascorbic acid were disrupted according to the method of Tzagoloff [J. Biol. Chem., 244, 5020 (1969)]. The frozen powder (900 gm) was transferred to 1.51 of a solution consisting of 0.4 M sucrose, 0.05 M Tris(hydroxymethyl) amino methane (Tris-HCl) pH 8.2, with one millimolar ethylene diamine tetracetic acid (EDTA). The pH of the suspension was adjusted to 7.5 with sodium hydroxide and the suspension was subsequently homogenized in a blender for 45 seconds. The homogenate was centrifuged at 2500×g for 15 minutes at 4° C. and the cell debris was discarded. The supernatant was centrifuged at 62000×g in a Shar-les centrifuge. The pellet (mitochondria) was saved and resuspended in 250 ml of a solution containing 0.25 M sucrose and 0.01 M Tris-HCl pH 7.5 and frozen.
# An assay mixture is provided which contains 2mM L-galactono-1,4-lactone and 50 mM Na-Citrate pH 6.8 in a total volume of 3 ml. The mixture is incubated at 37° C. in a shaker bath for up to 30 minutes. The reaction is stopped by adding 0.3 ml of 50% TCA. […]
# The specific activity of this sample was calculated to be 2.5 ×10^-3 micromoles/min/mg protein. […]
molecule,measurement,setting,value
O=C(O)[C@@H](O)[C@H](O)[C@H](O)C(=O)CO [5-Keto-L-Galactonic acid],utilization as substrate for L-ascorbic acid,preferred yeast strains,not utilized
O=C[C@H](O)[C@@H](O)[C@H](O)CO [D-Xylose],Assimilation of carbon compounds,Candida norvegensis,+ latent or
COC(=O)[C@@H](O)[C@H](O)[C@H](O)[C@@H](O)C=O [D-galacturonic acid-methyl ester],Other redox Compounds,[1],17.5 µg/mL
same,Total Ascorbate,[1],473 ug/100 ml
same,L-Ascorbate,[1],3.5 µg/mL
same,Optical Density,[1],2.60
same,Other redox Compounds,[2],1.3 µg/mL
same,Total Ascorbate,[2],"4,383 ug/100 ml"
same,L-Ascorbate,[2],12.0 µg/mL
same,Optical Density,[2],8.50
O=[N+]([O-])[O-].[K+] [KNO3],Assimilation of KNO3,Candida norvegensis,negative
O=C(O)[C@@H](O)[C@H](O)[C@H](O)[C@@H](O)CO [L-galactonic acid],utilization as substrate for L-ascorbic acid,preferred yeast strains,yields of L-ascorbic acid are reduced
"O=C1O[C@H]([C@@H](O)CO)[C@@H](O)[C@@H]1O [L-galactono-1,4-lactone]",Other redox Compounds,[1],10.1 µg/mL
same,Total Ascorbate,[1],"10,625 ug/100 ml"
same,L-Ascorbate,[1],92.8 µg/mL
same,Optical Density,[1],2.05
same,Other redox Compounds,[2],1.8 µg/mL
same,Total Ascorbate,[2],"15,905 ug/100 ml"
same,L-Ascorbate,[2],50.0 µg/mL
same,Optical Density,[2],8.50
same,Km,[3],1300 µM
"L-galactono-1,4-lactone oxidase (Saccharomyces cerevisiae S288C) (protein, The pellet (mitochondria) was saved and resuspended in 250 ml; endogenous in cells; host or cells: mitochondria of Red Star baker's yeast (Saccharomyces cerevisiae)) MSTIPFRKNYVFKNWAGIYSAKPERYFQPSSIDEVVELVKSARLAEKSLVTVGSGHSPSNMCVTDEWLVNLDRLDKVQKFVEYPELHYADVTVDAGMRLYQLNEFLGAKGYSIQNLGSISEQSVAGIISTGSHGSSPYHGLISSQYVNLTIVNGKGELKFLDAENDPEVFKAALLSVGKIGIIVSATIRVVPGFNIKSTQEVITFENLLKQWDTLWTSSEFIRVWWYPYTRKCVLWRGNKTTDAQNGPAKSWWGTKLGRFFYETLLWISTKIYAPLTPFVEKFVFNRQYGKLEKSSTGDVNVTDSISGFNMDCLFSQFVDEWGCPMDNGLEVLRSLDHSIAQAAINKEFYVHVPMEVRCSNTTLPSEPLDTSKRTNTSPGPVYGNVCRPFLDNTPSHCRFAPLENVTNSQLTLYINATIYRPFGCNTPIHKWFTLFENTMMVAGGKPHWAKNFLGSTTLAAGPVKKDTDYDDFEMRGMALKVEEWYGEDLKKFRKIRKEQDPDNVFLANKQWAIINGIIDPSELSD",Km,[4],1600 µM
same,Vmax,[4],0.34 µmol/min
